# Values of other authors in PubChem BioAssay AID1259409 (Chemical Carcinogenesis Research Information System (CCRIS), 2018).
# Where “and” joins values, the source holds several entries; their conditions need not be identical. Identical values can stand only once.
# Test system: rodent chemically induced tumor inhibition, incidence and multiplicity
# Experiment: CCRIS tumor inhibitor studies
# Details: Route [Inhibitor]: ORAL; for tumour outcome (control, treated, inhibition, significance): Promoter: NONE USED; for outcome: Carcinogen: NONE, Strain/Sex: APC/MIN/MALE, Promoter: NONE
# Excerpt: The CCRIS database contains chemical records with carcinogenicity, mutagenicity, tumor promotion, and tumor inhibition test results. It was developed by the National Cancer Institute (NCI). Data are derived from studies cited in primary journals, current awareness tools, NCI reports, and other sources. Test results have been reviewed by experts in carcinogenesis and mutagenesis.
# CCRIS provides historical information from the years 1985 - 2011. It is no longer updated.
# This is an archive assay for CCRIS tumor inhibitor studies.
compound,measurement,setting,value
CN1C(C(=O)Nc2ccccn2)=C(O)c2ccccc2S1(=O)=O,"tumour outcome (control, treated, inhibition, significance)","Carcinogen: N-BUTYL-N-(4-HYDROXYBUTYL)NITROSAMINE, 3817-11-6, Dose [Inhibitor]: 0, 0.0075% IN DIET FOR 12 WK BEGINNING POST CARCINOGEN TREATMENT (STUDY DURATION: 20 WK), Species: RAT, Strain/Sex: F344/MALE, Target Tissue: Type of Lesion: URINARY BLADDER: TRANSITIONAL CELL CARCINOMA, Dose [Carcinogen]: 0.05% IN DRINKING WATER FOR 8 WK","10/12 (83%), 4/12 (33%), 60%, p<0.05"
same,"tumour outcome (control, treated, inhibition, significance)","Carcinogen: N-BUTYL-N-(4-HYDROXYBUTYL)NITROSAMINE, 3817-11-6, Dose [Inhibitor]: 0, 15 MG/KG DIET BEGINNING 1 WK PRIOR TO CARCINOGEN TREATMENT AND CONTINUING FOR DURATION OF STUDY (STUDY DURATION: 180, Species: MOUSE, Strain/Sex: BDF/MALE, Target Tissue: Type of Lesion: BLADDER: CARCINOMA, Dose [Carcinogen]: 7.5 MG IN 0.1 ML OF ETHANOL:WATER (20:80) 1/WK FOR 8 WK","25/63 (40%), 5/69 (7%), 83%, p<0.0001"
same,"tumour outcome (control, treated, inhibition, significance)","Carcinogen: N-BUTYL-N-(4-HYDROXYBUTYL)NITROSAMINE, 3817-11-6, Dose [Inhibitor]: 0, 30 MG/KG DIET BEGINNING 1 WK PRIOR TO CARCINOGEN TREATMENT AND CONTINUING FOR DURATION OF STUDY (STUDY DURATION: 180, Species: MOUSE, Strain/Sex: BDF/MALE, Target Tissue: Type of Lesion: BLADDER: CARCINOMA, Dose [Carcinogen]: 7.5 MG IN 0.1 ML OF ETHANOL:WATER (20:80) 1/WK FOR 8 WK","28/65 (43%), 7/56 (13%), 70%, p<0.001"
same,"tumour outcome (control, treated, inhibition, significance)","Carcinogen: N-BUTYL-N-(4-HYDROXYBUTYL)NITROSAMINE, 3817-11-6, Dose [Inhibitor]: 0, 75 PPM IN DIET FOR 12 WK BEGINNING POST CARCINOGEN TREATMENT (STUDY DURATION: 20 WK), Species: RAT, Strain/Sex: F344/MALE, Target Tissue: Type of Lesion: URINARY BLADDER: TRANSITIONAL CELL CARCINOMA, Dose [Carcinogen]: 0.05% IN DRINKING WATER FOR 8 WK","18/20 (90%), 3/19 (16%), 82%, p<0.0001"
same,"tumour outcome (control, treated, inhibition, significance)","Carcinogen: N-METHYL-N-NITROSOUREA, 684-93-5, Dose [Inhibitor]: 130 MG/KG DIET DAILY STARTING 7 D AFTER LAST CARCINOGEN TREATMENT AND CONTINUING FOR 19 WK (STUDY DURATION: 21 WK), Species: RAT, Strain/Sex: SPRAGUE-DAWLEY/MALE, Target Tissue: Type of Lesion: INTESTINES: TUMOR, Dose [Carcinogen]: 0.8% IN 0.5 ML WATER 3 TIMES AT 2 D INTERVALS","9/9 (100%), 5/10 (50%), 50%, not calculated and 9/9 (100%), 3/9 (33%), 67%, not calculated"
same,"tumour outcome (control, treated, inhibition, significance)","Carcinogen: N-METHYLNITROSOUREA, 684-93-5, Dose [Inhibitor]: 0, 130 MG/KG VEGETABLE DIET (2.5 MG/D) BEGINNING 7 D POST LAST CARCINOGEN TREATMENT AND CONTINUING FOR STUDY DURATION (S, Species: RAT, Strain/Sex: CD-1/MALE, Target Tissue: Type of Lesion: INTESTINE: TUMOR, Dose [Carcinogen]: 0.5 ML OF 0.8% WATER SOLUTION 1/2 D FOR 6 D","9/9 (100%), 3/9 (33%), 67%, not calculated"
same,outcome,"Dose [Inhibitor]: 12 PPM IN DIET FOR 2 MONTHS (STUDY DURATION: 2 MONTHS), Species: MOUSE, Target Tissue: Type of Lesion: DISTAL SMALL INTESTINE: TUMOR","10.38, 5.47, 47%, p<0.01"
same,outcome,"Dose [Inhibitor]: 12 PPM IN DIET FOR 2 MONTHS (STUDY DURATION: 2 MONTHS), Species: MOUSE, Target Tissue: Type of Lesion: MIDDLE SMALL INTESTINE: TUMOR","23.75, 16.20, 32%, not significant"
same,outcome,"Dose [Inhibitor]: 12 PPM IN DIET FOR 2 MONTHS (STUDY DURATION: 2 MONTHS), Species: MOUSE, Target Tissue: Type of Lesion: PROXIMAL SMALL INTESTINE: TUMOR","7.63, 14.80, -94%, p<0.01"
same,outcome,"Dose [Inhibitor]: 25 PPM IN DIET FOR 2 MONTHS (STUDY DURATION: 2 MONTHS), Species: MOUSE, Target Tissue: Type of Lesion: DISTAL SMALL INTESTINE: TUMOR","10.38, 2.50, 76%, p<0.001"
same,outcome,"Dose [Inhibitor]: 25 PPM IN DIET FOR 2 MONTHS (STUDY DURATION: 2 MONTHS), Species: MOUSE, Target Tissue: Type of Lesion: MIDDLE SMALL INTESTINE: TUMOR","23.75, 10.93, 38%, p<0.001"
same,outcome,"Dose [Inhibitor]: 50 PPM IN DIET FOR 2 MONTHS (STUDY DURATION: 2 MONTHS), Species: MOUSE, Target Tissue: Type of Lesion: DISTAL SMALL INTESTINE: TUMOR","10.38, 2.60, 75%, p<0.001"
same,outcome,"Dose [Inhibitor]: 50 PPM IN DIET FOR 2 MONTHS (STUDY DURATION: 2 MONTHS), Species: MOUSE, Target Tissue: Type of Lesion: MIDDLE SMALL INTESTINE: TUMOR","23.75, 14.73, 38%, p<0.05"
same,outcome,"Dose [Inhibitor]: 100 PPM IN DIET FOR 2 MONTHS (STUDY DURATION: 2 MONTHS), Species: MOUSE, Target Tissue: Type of Lesion: DISTAL SMALL INTESTINE: TUMOR","10.38, 1.60, 85%, p<0.001"
same,outcome,"Dose [Inhibitor]: 100 PPM IN DIET FOR 2 MONTHS (STUDY DURATION: 2 MONTHS), Species: MOUSE, Target Tissue: Type of Lesion: MIDDLE SMALL INTESTINE: TUMOR","23.75, 10.40, 56%, p<0.001"
